Experimental data as given in PubChem BioAssay AID250 (DTP/NCI, 2004).
Where “and” joins values, the source holds several entries; their conditions need not be identical. Equal values may be shown once. Inconclusive results and toxic doses are left out.

System: BDF1 mice, L1210 leukemia sc, survival T/C
Assay: NCI In Vivo Anticancer Drug Screen. Data for tumor model L1210 Leukemia (subcutaneous) in B6D2F1 (BDF1) mice
Conditions: higher = longer survival
Outline: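 Read-out: T/C ratio, i.e. survival or tumor size in treated mice over that in vehicle-treated controls, from mice bearing transplantable tumors.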

[1] = endpoint: median survival time, dose: 14.0 mg/kg/injection, schedule: Q01DX Z (sc), vehicle: saline
[2] = endpoint: median survival time, dose: 23.0 mg/kg/injection, schedule: Q01DX Z (sc), vehicle: saline
[3] = endpoint: median survival time, dose: 39.0 mg/kg/injection, schedule: Q01DX Z (sc), vehicle: saline
[4] = endpoint: median survival time, dose: 65.0 mg/kg/injection, schedule: Q01DX Z (sc), vehicle: saline
[5] = endpoint: median survival time, dose: 108.0 mg/kg/injection, schedule: Q01DX Z (sc), vehicle: saline
[6] = endpoint: median survival time, dose: 180.0 mg/kg/injection, schedule: Q01DX Z (sc), vehicle: saline
[7] = endpoint: median survival time, dose: 3.0 mg/kg/injection, schedule: Q01DX Z (sc), vehicle: methylcellulose (MC)
[8] = endpoint: median survival time, dose: 39.0 mg/kg/injection, schedule: Q01DX Z (sc), vehicle: methylcellulose (MC)
[9] = endpoint: median survival time, dose: 180.0 mg/kg/injection, schedule: Q01DX Z (sc), vehicle: methylcellulose (MC)
[10] = endpoint: median survival time, dose: 300.0 mg/kg/injection, schedule: Q01DX Z (sc), vehicle: methylcellulose (MC)
[11] = endpoint: median survival time, dose: 65.0 mg/kg/injection, schedule: Q01DX Z (sc), vehicle: methylcellulose (MC)
[12] = endpoint: median survival time, dose: 108.0 mg/kg/injection, schedule: Q01DX Z (sc), vehicle: methylcellulose (MC)
[13] = endpoint: median survival time, dose: 500.0 mg/kg/injection, schedule: Q01DX Z (sc), vehicle: methylcellulose (MC)

Compound: CCOS(C)(=O)=O
- T/C [1]: 100 % of control
- T/C [2]: 95 % of control
- T/C [3]: 100 % of control
- T/C [4]: 90 % of control
- T/C [5]: 95 % of control
- T/C [6]: 90 % of control

Compound: CCS(=O)(=O)Nc1cccc(Nc2c3cccc(C)c3nc3c(C)cccc23)c1OC
- T/C (endpoint: mean survival time, dose: 12.5 mg/kg/injection, schedule: Q01DX009 (sc), vehicle: Klucel (hydroxypropylcellulose) (HPC)): 105 % of control
- T/C (endpoint: mean survival time, dose: 25.0 mg/kg/injection, schedule: Q01DX009 (sc), vehicle: Klucel (hydroxypropylcellulose) (HPC)): 100 % of control
- T/C (endpoint: mean survival time, dose: 50.0 mg/kg/injection, schedule: Q01DX009 (sc), vehicle: Klucel (hydroxypropylcellulose) (HPC)): 104 % of control
- T/C (endpoint: mean survival time, dose: 100.0 mg/kg/injection, schedule: Q01DX009 (sc), vehicle: Klucel (hydroxypropylcellulose) (HPC)): 112 % of control

Compound: COC(=N)N
- T/C (endpoint: median survival time, dose: 1.8 mg/kg/injection, schedule: Q01DX Z (sc), vehicle: methylcellulose (MC)): 100 % of control
- T/C [7]: 100 % of control

Compound: C=CCNC(=O)NCC=C
- T/C (endpoint: median survival time, dose: 100.0 mg/kg/injection, schedule: Q01DX001 (ip), vehicle: saline): 105 % of control
- T/C (endpoint: median survival time, dose: 100.0 mg/kg/injection, schedule: Q01DX001 (sc), vehicle: saline): 111 % of control
- T/C (endpoint: median survival time, dose: 100.0 mg/kg/injection, schedule: Q04DX003 (ip), vehicle: saline): 111 % of control
- T/C (endpoint: median survival time, dose: 100.0 mg/kg/injection, schedule: Q04DX003 (sc), vehicle: saline): 111 % of control
- T/C (endpoint: median survival time, dose: 200.0 mg/kg/injection, schedule: Q01DX001 (ip), vehicle: saline): 111 % of control
- T/C (endpoint: median survival time, dose: 200.0 mg/kg/injection, schedule: Q01DX001 (sc), vehicle: saline): 111 % of control
- T/C (endpoint: median survival time, dose: 200.0 mg/kg/injection, schedule: Q01DX009 (ip), vehicle: saline): 150 % of control
- T/C (endpoint: median survival time, dose: 200.0 mg/kg/injection, schedule: Q04DX003 (ip), vehicle: saline): 122 % of control

Compound: O=C(Nc1ccc(C2=NCCN2)cc1)c1ccc(NC(=O)c2ccc(C3=NCCN3)cc2)cc1
- T/C [8]: 95 % of control
- T/C [9]: 115 % of control
- T/C [10]: 110 % of control

Compound: C[C@H](N)C(=O)N[C@@H]1[C@H]2C(=C(O)C[C@@H](O)[C@@H]2O)C(=O)O[C@@H]1C
- T/C [3]: 109 % of control
- T/C [4]: 109 % of control
- T/C [5]: 100 % of control
- T/C [6]: 100 % of control and 104 % of control
- T/C (endpoint: median survival time, dose: 180.0 mg/kg/injection, schedule: Q#A X Z (sc), vehicle: saline): 103 % of control
- T/C (endpoint: median survival time, dose: 300.0 mg/kg/injection, schedule: Q01DX Z (sc), vehicle: saline): 100 % of control and 109 % of control
- T/C (endpoint: median survival time, dose: 300.0 mg/kg/injection, schedule: Q#A X Z (sc), vehicle: saline): 107 % of control
- T/C (endpoint: median survival time, dose: 389.0 mg/kg/injection, schedule: Q01DX Z (sc), vehicle: saline): 112 % of control
- T/C (endpoint: median survival time, dose: 500.0 mg/kg/injection, schedule: Q01DX Z (sc), vehicle: saline): 107 % of control and 118 % of control
- T/C (endpoint: median survival time, dose: 500.0 mg/kg/injection, schedule: Q#A X Z (sc), vehicle: saline): 103 % of control
- T/C (endpoint: median survival time, dose: 833.0 mg/kg/injection, schedule: Q01DX Z (sc), vehicle: saline): 163 % of control
- T/C (endpoint: median survival time, dose: 1388.0 mg/kg/injection, schedule: Q#A X Z (sc), vehicle: saline): 115 % of control
- T/C (endpoint: median survival time, dose: 1800.0 mg/kg/injection, schedule: Q01DX Z (sc), vehicle: saline): 150 % of control

Compound: COC(=O)[C@@H]1c2cc3c(c(O)c2[C@@H](OC2OC(C)C(OC)C(C)(OC)C2OC)C[C@]1(C)O)C(=O)c1c(O)cc2c(c1C3=O)O[C@H]1O[C@]2(C)[C@H](O)[C@@H](N(C)C)[C@@H]1O (stereo not given in full)
- T/C (endpoint: median survival time, dose: 3.0 mg/kg/injection, schedule: Q01DX Z (sc), vehicle: saline): 105 % of control
- T/C (endpoint: median survival time, dose: 5.0 mg/kg/injection, schedule: Q01DX Z (sc), vehicle: saline): 100 % of control
- T/C (endpoint: median survival time, dose: 8.4 mg/kg/injection, schedule: Q01DX Z (sc), vehicle: saline): 100 % of control
- T/C [1]: 90 % of control
- T/C [2]: 90 % of control

Compound: O=C(Nc1ccc(C(=O)Nc2ccc(C3=NCCN3)cc2)cc1)Nc1ccc(C2=NCCN2)cc1
- T/C [8]: 95 % of control
- T/C [11]: 95 % of control
- T/C [12]: 100 % of control
- T/C [9]: 110 % of control

Compound: CCOC(=O)NP(=O)(N1CC1)N1CC1
- T/C (endpoint: median survival time, dose: 5.0 mg/kg/injection, schedule: Q01DX Z (sc), vehicle: water): 120 % of control
- T/C (endpoint: median survival time, dose: 14.0 mg/kg/injection, schedule: Q01DX Z (sc), vehicle: water): 150 % of control
- T/C (endpoint: median survival time, dose: 23.0 mg/kg/injection, schedule: Q02DX Z (sc), vehicle: water): 170 % of control
- T/C (endpoint: median survival time, dose: 23.0 mg/kg/injection, schedule: Q## X Z (sc), vehicle: water): 165 % of control
- T/C (endpoint: median survival time, dose: 39.0 mg/kg/injection, schedule: Q01DX001 (sc), vehicle: water): 160 % of control
- T/C (endpoint: median survival time, dose: 39.0 mg/kg/injection, schedule: Q07DX Z (sc), vehicle: water): 150 % of control

Compound: Cn1c(N)nc2nc[nH]c2c1=S
- T/C [11]: 100 % of control
- T/C [12]: 100 % of control
- T/C [9]: 100 % of control and 105 % of control
- T/C [10]: 100 % of control
- T/C [13]: 100 % of control and 105 % of control
- T/C (endpoint: median survival time, dose: 833.0 mg/kg/injection, schedule: Q01DX Z (sc), vehicle: methylcellulose (MC)): 110 % of control

Compound: O=C(Nc1ccc(C2=NCCCN2)cc1)c1ccc(C(=O)Nc2ccc(C3=NCCCN3)cc2)cc1
- T/C [7]: 190 % of control
- T/C (endpoint: median survival time, dose: 5.0 mg/kg/injection, schedule: Q01DX Z (sc), vehicle: methylcellulose (MC)): 195 % of control
- T/C (endpoint: median survival time, dose: 8.4 mg/kg/injection, schedule: Q01DX Z (sc), vehicle: methylcellulose (MC)): 165 % of control
- T/C (endpoint: median survival time, dose: 14.0 mg/kg/injection, schedule: Q01DX Z (sc), vehicle: methylcellulose (MC)): 155 % of control
- T/C (endpoint: median survival time, dose: 23.0 mg/kg/injection, schedule: Q01DX Z (sc), vehicle: methylcellulose (MC)): 150 % of control

Compound: CS(=O)(=O)Nc1ccc(Nc2c3ccccc3nc3cc(Cl)ccc23)cc1
- T/C (endpoint: mean survival time, dose: 10.0 mg/kg/injection, schedule: Q01DX009 (sc), vehicle: saline): 104 % of control
- T/C (endpoint: mean survival time, dose: 20.0 mg/kg/injection, schedule: Q01DX009 (sc), vehicle: saline): 112 % of control
- T/C (endpoint: mean survival time, dose: 40.0 mg/kg/injection, schedule: Q01DX009 (sc), vehicle: saline): 113 % of control
- T/C (endpoint: mean survival time, dose: 80.0 mg/kg/injection, schedule: Q01DX009 (sc), vehicle: saline): 124 % of control

Compound: OC(c1ccccc1)c1nc2ccccc2[nH]1 (stereo not given)
- T/C [12]: 100 % of control
- T/C [9]: 100 % of control
- T/C [10]: 100 % of control
- T/C [13]: 100 % of control
- T/C (endpoint: median survival time, dose: 840.0 mg/kg/injection, schedule: Q01DX Z (sc), vehicle: methylcellulose (MC)): 100 % of control

Compound: O=C1CCC(N2C(=O)c3ccccc3C2=O)C(=O)N1 (stereo not given)
- T/C (endpoint: median survival time, dose: 6.0 mg/kg/injection, schedule: Q01DX Z (sc), vehicle: methylcellulose (MC)): 100 % of control
- T/C (endpoint: median survival time, dose: 12.0 mg/kg/injection, schedule: Q01DX Z (sc), vehicle: methylcellulose (MC)): 100 % of control
- T/C (endpoint: median survival time, dose: 24.0 mg/kg/injection, schedule: Q01DX Z (sc), vehicle: methylcellulose (MC)): 100 % of control
- T/C (endpoint: median survival time, dose: 48.0 mg/kg/injection, schedule: Q01DX Z (sc), vehicle: methylcellulose (MC)): 100 % of control
- T/C [11]: 100 % of control
- T/C [12]: 94 % of control
- T/C [9]: 88 % of control
- T/C [10]: 100 % of control
- T/C [13]: 100 % of control

Compound: Cc1c(O)ccc(=O)n1O
- T/C (endpoint: median survival time, dose: 65.0 mg/kg/injection, schedule: Q01DX Z (sc), vehicle: carboxymethylcellulose (CMC)): 100 % of control
- T/C (endpoint: median survival time, dose: 108.0 mg/kg/injection, schedule: Q01DX Z (sc), vehicle: carboxymethylcellulose (CMC)): 100 % of control
- T/C (endpoint: median survival time, dose: 180.0 mg/kg/injection, schedule: Q01DX Z (sc), vehicle: carboxymethylcellulose (CMC)): 100 % of control
- T/C (endpoint: median survival time, dose: 300.0 mg/kg/injection, schedule: Q01DX Z (sc), vehicle: carboxymethylcellulose (CMC)): 100 % of control
- T/C (endpoint: median survival time, dose: 500.0 mg/kg/injection, schedule: Q01DX Z (sc), vehicle: carboxymethylcellulose (CMC)): 100 % of control
